# Experimental data from ChEMBL document CHEMBL3507680, “University of Dundee, Gates Library screen for HepG2 cell viability”.
# Experiment: Human HepG2 cell viability assay in 384 well format
# Format: toxicity, cell-based
# Set-up: dose 125 nL, time 70.5 hour; concentration not given beside the values
# Conditions: HepG2 cells, read-out: Inhibition
row,Structure (SMILES),cytotoxicity at 70.5 h [%]
1,O=C(CC1CCC2(CC1)CCN(Cc1nccs1)CC2)N1CC=CC1,-3.04
2,Cc1ccnc(OC[C@]23COC[C@H]2CN(C(=O)C2=CCCCC2)C3)n1,-11.5
3,Cc1ccnc(OC[C@]23COC[C@H]2CN(C(=O)c2ncccn2)C3)n1,21.2
4,Cc1ccnc(OC[C@]23COC[C@H]2CN(C(=O)c2cnccn2)C3)n1,14.9
5,COCc1ncn2c1CN(C(=O)Nc1cccc(OC)c1)CC2,19.8
6,CC(=O)NCC(=O)N1CCC2(COCc3c(C)nc(N(C)C)nc32)C1 (centres undefined),-6.64
7,Cc1nc(N(C)C)nc2c1COCC21CCN(C(=O)NCC(C)C)C1 (centres undefined),-7.67
8,CN1C(Cn2cccn2)C[C@@H]2CN(Cc3cnn(C)c3)CC[C@@H]21 (some centres undefined),-11.7
9,CCOCc1ncn2c1CN(C(=O)Nc1ccccc1)CC2,-15.7
10,CCS(=O)(=O)N1C[C@H]2CN(Cc3cccc(F)c3)C(=O)[C@H]2C1,-3.13
11,CN(C)c1ncc(-c2cc(C(=O)N3CCCC3)n(CC3CC3)c2)cn1,-11
12,CC(C)COCC1CN(Cc2ccoc2)Cc2ncn(C)c21 (centres undefined),14
13,CC(C)N(C)Cc1cnc2n1CCN(Cc1cccc(C#N)c1)C2,-13.7
14,Cc1ccc(N2CC[C@H]3OCC[C@@]3(C(=O)N3CCCC3)C2)nn1,-9.8
15,Cc1ccc(N2CC[C@H]3OCC[C@@]3(C(=O)NCC3CC3)C2)nn1,-7.61
16,CCO[C@@H]1CCN(c2ccc(C)nn2)[C@@H]1Cc1cnn(C)c1,-10.9
17,O=C(Cc1ccccn1)N1C[C@@H](Oc2cccnc2)[C@H]2OCCC[C@H]21,28.2
18,Cn1nccc1-c1ccc2nc(C3CCNCC3)nn2c1,10.5
19,O=C(Nc1cccc(Cl)c1)c1nn(C2CCS(=O)(=O)C2)c2c1CCCC2 (centres undefined),13.9
20,COc1cccc(C2CC(=O)Nc3nc(N)sc32)c1OC (centres undefined),12.4
21,O=C(c1cc(-n2cccc2)ccc1Cl)N1CCC2(CC1)OCCO2,2.22
22,Cn1ncc2c1NC(=O)CC2c1ccccc1Cl (centres undefined),-5.68
23,CN(C(=O)Cn1nc(-c2ccc(F)cc2)ccc1=O)C1CCS(=O)(=O)C1 (centres undefined),-0.171
24,CCOC(=O)N1CCN(C(=O)CCn2ccc3c(OC)cccc32)CC1,-9.78
25,CN1CCN(c2nc(O)c3c(-c4ccccn4)ccnc3n2)CC1,-3.01
26,O=C(COc1coc(CN2CCOCC2)cc1=O)c1ccc(Cl)cc1,-9.03

row,Structure (SMILES),cytotoxicity at 70.5 h [%]
1,CC(C)CN1C[C@@H]2CN(C(=O)[C@H]3CCCO3)C[C@@H]2C1=O,-14.1
2,CCCC(=O)N1CCC2(CC1)CC(NC(C)=O)c1ccccc1O2 (centres undefined),-13.7
3,COCCN1C(=O)CCC12CCN(C(=O)NC(C)C)CC2,-25.3
4,Cc1ccc(C(=O)N2CCCC3(CCCC(=O)N3C)C2)cc1F (centres undefined),-4.57
5,CC(=O)N1CCN(c2ccc3ccc(C(=O)NC4CCCC4)cn23)CC1,-14.6
6,O=C(c1ccco1)N1CCC2(CCC(=O)N2Cc2cccc(F)c2)CC1,-15.7
7,COCCN1CC[C@]2(CN(C(=O)c3cccs3)C[C@H]2C)C1=O,-10.6
8,Cc1occc1C(=O)N1CCC2(CCC(C(=O)NCC3CC3)O2)CC1 (centres undefined),-12.7
9,COCCO[C@H]1CCN(C(=O)c2cc(C)on2)[C@H]1Cc1ccccc1,0.559
10,CC[C@H]1NCCC[C@]12CCC(=O)N2Cc1ccncc1,-0.708
11,O=C(c1ccnnc1)N1CCC2(CC1)CC(N1CCOCC1)C2,33.7
12,O=C(C1CC1)N1CC[C@H](O)[C@@H]1Cc1ccccc1,-3.79
13,CC(C)C(=O)N1CCC2(CCCN(CCOc3ccccc3)C2)C1 (centres undefined),-8.26
14,c1ccc(N2CCCC3(CCN(Cc4nccs4)C3)C2)nc1 (centres undefined),6.32
15,CN(C)C(=O)CC1CC2(CCN(C(=O)N(C)C)CC2)Oc2ccccc21 (centres undefined),-11.4
16,O=C1CC2(CCCNC2)C(=O)N1Cc1ccccc1 (centres undefined),18.9
17,CN1CCc2c(C#N)c(NCCCN3CCOCC3)n3cnnc3c2C1,-14.3
18,NC[C@H]1[C@H]2CN(Cc3ccccc3)C[C@@H]12,0.818
19,Cc1ccc(CNC2CCc3[nH]c(=O)ccc3C2)cc1C (centres undefined),2.24
20,CNC(=O)CN1CC[C@H]2CN(C(=O)c3ccccc3F)C[C@H]2C1,-2.12
21,COCCN1CCC2(CC1)CC(c1cccnc1)CO2 (centres undefined),-4.14
22,COCCn1cc2c(n1)C(CNCc1ccsc1)OCC2 (centres undefined),-14.8
23,COCC1CC2(CCN(C(=O)c3ccccc3C)CC2)CN1C(C)C (centres undefined),19.7
24,Cc1ccc(CN2CCC3(C2)C(=O)N(CC2CC2)c2ccccc23)s1 (centres undefined),-8.57
25,CC(C)CN1C(=O)C2(CCN(Cc3cccs3)C2)c2ccccc21 (centres undefined),-16.4
26,CC(C)CN1C(=O)C2(CCN(Cc3ccoc3)C2)c2ccccc21 (centres undefined),-14.2

row,Structure (SMILES),cytotoxicity at 70.5 h [%]
1,CC(C)N(C)Cc1cnc2n1CCN(S(=O)(=O)c1ccccc1)C2,15.9
2,COCC1CC2(CCN(C(=O)c3ccco3)CC2)CN1C(C)C (centres undefined),-13
3,CCS(=O)(=O)N1CCO[C@H]2[C@H](Oc3ncccc3F)CC[C@@H]21,-11.9
4,COCCN1C(=O)[C@]2(CC[C@@H]3CN(Cc4ccccc4F)C[C@@H]32)N=C1C,-9.72
5,CC1=N[C@@]2(CC[C@@H]3CN(CC4CC4)C[C@@H]32)C(=O)N1CC1CC1,-13.6
6,CC1=N[C@@]2(CC[C@@H]3CN(Cc4cccc(Cl)c4)C[C@@H]32)C(=O)N1CC1CC1,-14.9
7,CC(=O)N1CC(=O)N(c2ccccc2)CC12CCN(Cc1ccoc1)C2 (centres undefined),-14.4
8,CC(C)CN1CC[C@@H]2[C@H](CC1)N(S(C)(=O)=O)CCS2(=O)=O,-11.1
9,CC(=O)N1CC(=O)N(c2cnn(C)c2)CC12CCN(Cc1cccs1)C2 (centres undefined),-9.86
10,O=C(N[C@H]1CN(Cc2ccsc2)[C@@H]2CCCO[C@H]12)C1CC1,-11.3
11,COCC1Cn2nnc(-c3cnn(C)c3)c2CN1Cc1ccsc1 (centres undefined),-9.05
12,CC1CCN(C(=O)[C@H]2CC[C@@H]3[C@@H](CCN3Cc3nccs3)O2)CC1,25.3
13,Cc1nc(CN2CC[C@H]3[C@@H]2CCC(=O)N3c2cnn(C)c2)cs1,13.5
14,c1cnc(N2Cc3nccn3CC(COc3cccnc3)C2)nc1 (centres undefined),-8.37
15,CN1C(=O)C(c2ccccc2)CC12CCN(CCO)CC2 (centres undefined),-14.6
16,CN(C)C[C@@H]1C[C@@H]2CN(C(=O)c3ccoc3)CC[C@@H]2N1CC1CC1,24
17,O=C1C[C@H]2[C@H](CCN2Cc2ccccn2)N1CC1CC1,-15.8
18,O=C(c1ccc(F)cc1)N1CCC2(CCCN2CC2CC2)CC1,-14
19,CC(C)NC(=O)CC1COC2(CCN(Cc3cccs3)CC2)C1 (centres undefined),-20.6
20,CO[C@@H]1CCN(C(=O)c2ccccn2)[C@H]1Cc1ccccc1,-16.2
21,Cc1cccc(CN2CCc3nnc(CN4CCCC4=O)n3CC2)n1,-16.9
22,COCCC(=O)N1C[C@H]2CN(Cc3cccc(C)n3)C(=O)[C@H]2C1,-11.1
23,COc1ccc(CN2CCC3(CC2)CCN(CC(C)C)C3=O)cc1,-10.6
24,O=C(N1CCCC1)N1CCC2(CCCN(CCOc3ccccc3)C2)C1 (centres undefined),26.5
25,O=C(CC1CCCC1)N1C[C@@H]2CCN(c3cccnc3)C[C@@H]2C1,-7.38
26,c1cnc(N2CCC3(CC2)CN(CC2CC2)c2ccccc23)nc1,12.1

row,Structure (SMILES),cytotoxicity at 70.5 h [%]
1,O=C1COC2(CCN(C(=O)c3ccco3)CC2)CN1Cc1cccnc1,-8.01
2,Cc1noc(C)c1CN1CCCC2(CCN(C(=O)NC3CC3)C2)C1 (centres undefined),1.02
3,CN(C)C(=O)CN1C(=O)CCC12CCN(Cc1cccn1C)CC2,0.746
4,C[C@@H]1C(=O)NC[C@H]2CN(Cc3ccsc3)C[C@H]21,-2.8
5,C[C@@H]1C(=O)NC[C@H]2CN(CCc3ccccc3)C[C@H]21,-0.303
6,O=C1COC2(CCN(C(=O)c3ccco3)CC2)CN1Cc1ccccn1,-1.65
7,O=C(CC1CC1)N1C[C@@H]2CCN(c3cnccn3)C[C@@H]2C1,4.03
8,CN1CC2(CCN(Cc3ccoc3)CC2)COc2ccccc2S1(=O)=O,-12.1
9,CC(C)CC(=O)N1CC[C@@H]2[C@H](CC1)N(Cc1cccnc1)CCS2(=O)=O,3.17
10,CC(C)C(=O)N1CC[C@@H]2[C@H](CC1)N(Cc1cccnc1)CCS2(=O)=O,2.07
11,O=C(CC1CCC2(CC1)CCN(Cc1cccnc1)CC2)N1CC=CC1,-8.62
12,Fc1ccc(CN2CCC(F)(F)C3(CCN(c4cnccn4)C3)C2)cc1 (centres undefined),-9.88
13,CC(C)N(C)Cc1cnc2n1CCN(C(=O)Cc1ccccn1)C2,13.5
14,Cn1cc(CN2CCC(F)(F)C3(CCN(c4ncccn4)C3)C2)cn1 (centres undefined),-12.2
15,CC(C)N(C)Cc1cnc2n1CCN(Cc1cccc(F)c1)C2,-4.8
16,CNC(=O)CN1CCOCC2(CCCN(Cc3ccsc3)C2)C1 (centres undefined),-19.5
17,CCN1CCn2c(C)cnc2C12CCN(C(=O)N(C)C)CC2,-9.01
18,CCN1CCn2c(C)cnc2C12CCN(C(=O)c1cscn1)CC2,4.22
19,Cn1cc(N2C(=O)CC[C@@H]3[C@H]2CCN3Cc2cccc(C#N)c2)cn1,-13.2
20,O=C1CC[C@H]2[C@H](CCN2Cc2ccccn2)N1CC1CCOCC1,-6.68
21,CN1[C@H](CN2CCCC2)C[C@@H]2CN(C(=O)Cc3cccs3)CC[C@@H]21,27.9
22,CC(=O)N1CCN(Cc2ccccn2)CC2(CC(=O)N(C)C2)C1 (centres undefined),0.971
23,CNC(=O)[C@@H]1C[C@H]2CN(Cc3nccs3)C[C@H]2N1C,6.13
24,CN(C)CCOCC1CN(CC2CCOCC2)Cc2nnn(C)c21 (centres undefined),-6.51
25,Cc1nc(CN2CCC3(CCCN(Cc4ccncc4)C3)C2=O)cs1 (centres undefined),-11.1
26,Cc1cccc(CN2CC[C@H]3[C@H]2CCN3Cc2cnn(C)c2)n1,30.5
